# Source: patent US20190375786A1, “STABLE PEPTIDES AND METHODS OF USE THEREOF” (Fred Hutchinson Cancer Research Center, priority 2016, published 2019)
# Positions of bridges follow the written chain, without caps; N, C: chain ends. Residues, ends and D or L forms follow the SMILES beside them.
# How the values were obtained:
# trypsin = trypsin (Sus scrofa, UniProt P00761); assay: Trypsin digestion resistance of soluble peptide, RP-HPLC; type: in vitro ADME, porcine; parameters: purchased Sigma Aldrich 6567; details: 500 U/ml trypsin, 30 minutes at 37.5° C.; HPLC peak vs untreated peptide
# Sequence of trypsin (P00761 9-231): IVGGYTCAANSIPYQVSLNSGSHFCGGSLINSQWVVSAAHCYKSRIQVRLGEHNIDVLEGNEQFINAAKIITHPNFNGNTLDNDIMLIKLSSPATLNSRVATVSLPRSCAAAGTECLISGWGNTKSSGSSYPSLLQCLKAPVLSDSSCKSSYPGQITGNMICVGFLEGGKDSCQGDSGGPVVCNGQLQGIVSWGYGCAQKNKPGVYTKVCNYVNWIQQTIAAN
# Protocol: (§1) Peptides were first suspended in 500 μl of ddH2O to a stock concentration of 2 mg/ml. Reactions were prepared by adding 12.5 μg of peptide from the stock solution to a 10 mM solution of DTT in PBS and allowed to incubate at room temperature for 30 minutes. Other reactions were prepared with 12.5 μg peptide and 500 U/ml trypsin in 25 mM Tris/75 mM NaCl buffer (pH 7.0) and incubated for 30 minutes at 37.5° C. These reactions were then quenched with 5 μg of soybean trypsin inhibitor (I) and, in some cases, 10 mM dithiothreitol (DTT). Reversed phase HPLC (RP-HPLC) was run on samples using an Agilent 1260 HPLC equipped with a C-18 Poroshell 120B column. Sample were analyzed by a gradient method with a mobile phase of Solvent A (water with 0.1% TFA) and Solvent B (acetonitrile with 0.1% TFA). Solvent B was ramped up from 5%-45% of the mobile phase over a period of 10 minutes. For testing pepsin digestion resistance, reactions were prepared with 12.5 μg peptide with or without 500 U/ml pepsin in simulated gastric fluid (SGF; pH 1.05; […] sodium chloride in 0.7% (v/v) hydrochloric acid) and were incubated for 30 minutes at 37.5° C. For testing temperature resistance, peptides were incubated at 70° C., 75° C., or 100° C. for one hour in 0.5 mM PBS, pelleted, and then the supernatant was analyzed by HPLC.
# (§2) This example illustrates peptide stability in biological conditions including in the presence of reducing agents, proteases, oxidative conditions, acidic conditions, and simulated gastric fluids. […] Various peptides were suspended in 500 μl of ddH2O at a stock concentration of 2 mg/ml. This was then diluted in accord with the reaction conditions to prevent adverse buffering effects. Reactions were prepared with 12.5 μg peptide dissolved in solution and, in some samples, additionally suspended in a 10 mM solution of DTT, simulated gastric fluid (pH 1.05; […] sodium chloride in 0.7% (v/v) hydrochloric acid), 500 U pepsin (5000 U/ml pepsin), 50 U trypsin (500 U/ml trypsin) with 1 mg/ml inhibitor in PBS, or a combination of any of these conditions. All protease reactions were incubated for 30 min at room temperature and then quenched. Pepsin reactions were quenched by adding Tris base to a final concentration of 0.075 M. Trypsin reactions were quenched by adding excess soybean trypsin inhibitor. RP-HPLC was then run on samples using an Agilent 1260 HPLC equipped with a C-18 Poroshell 120B column. Sample were analyzed by a gradient method with a mobile phase of Solvent A (water with 0.1% TFA) and Solvent B (acetonitrile with 0.1% TFA). Solvent B was ramped up from 5%-45% of the mobile phase over a period of 10 minutes.
# Soluble peptides were exposed to 500 U/mL porcine trypsin and analyzed by HPLC. Protease resistance was also assessed by using SDPR-displaying peptides. The SDPR vector is similar to the a surface display GFP FasL(SDGF) vector, but contains a C-terminal 6×His tag (SEQ ID NO: 180) and all basic or aromatic amino acid residues on the stalk removed. Protease resistance is then tested by incubation of cells displaying peptides with trypsin or chymotrypsin, followed by incubation in 10 mM DTT, and staining with an anti-6×His fluorophore-labeled antibody (“6×His” disclosed as SEQ ID NO: 180). If peptides are uncleaved, they retain the His tag and are stained with by the antibody. A control protease-sensitive knottin peptide (SK) was used as a positive control. Cells displaying peptides were treated with up to 40 μg/ml trypsin or chymotrypsin.
# FIG. 21 illustrates high performance liquid chromatograph (HPLC) traces of peptides after trypsin digestion. […] The assay was carried out by reconstituting 1 mg porcine trypsin (Sigma Aldrich 6567) in 1 mL of 1 mM HCl. Trypsin was provided at a concentration of 10,000 u/mL and thus, 5 μl of stock solution was equivalent to using 50 U of trypsin in each reaction. Soybean trypsin inhibitor (SA T9128) was prepared at 1 mg/mL of in H2O. […]
# pepsin = pepsin (Sus scrofa, UniProt P00791); assay: Pepsin digestion resistance in simulated gastric fluid, RP-HPLC; type: in vitro ADME, porcine; parameters: purchased Sigma Aldrich P7012; details: 500 U/ml pepsin in SGF pH 1.05, 30 minutes at 37.5° C.; HPLC peak vs untreated peptide
# Sequence of pepsin (P00791 60-385): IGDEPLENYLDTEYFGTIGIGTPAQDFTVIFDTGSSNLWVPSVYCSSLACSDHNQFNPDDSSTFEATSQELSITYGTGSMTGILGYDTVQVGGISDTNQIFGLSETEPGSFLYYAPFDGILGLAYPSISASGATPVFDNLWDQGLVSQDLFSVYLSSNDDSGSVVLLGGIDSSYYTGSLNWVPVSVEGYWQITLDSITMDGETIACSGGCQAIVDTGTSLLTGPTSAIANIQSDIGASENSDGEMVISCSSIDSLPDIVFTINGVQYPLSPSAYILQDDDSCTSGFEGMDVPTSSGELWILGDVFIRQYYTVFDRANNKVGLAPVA
# Protocol: Peptides were first suspended in 500 ul of ddH2O to a stock concentration of 2 mg/ml. Reactions were prepared by adding 12.5 ug of peptide from the stock solution to a 10 mM solution of DTT in PBS and allowed to incubate at room temperature for 30 minutes. Other reactions were prepared with 12.5 μg peptide with or without 500 U/ml pepsin in simulated gastric fluid (SGF; pH 1.05; […] sodium chloride in 0.7% (v/v) hydrochloric acid) and were incubated for 30 minutes at 37.5° C. Some reactions were quenched with a final concentration of 100 mM Tris base and 10 mM dithiothreitol (DTT). Some reactions were performed in all of the above components, including simulated gastric fluid, pepsin, Tris, and DTT (referred to as SPTD). Reversed phase HPLC (RP-HPLC) was run on samples using an Agilent 1260 HPLC equipped with a C-18 Poroshell 120B column. Sample were analyzed by a gradient method with a mobile phase of Solvent A (water with 0.1% TFA) and Solvent B (acetonitrile with 0.1% TFA). Solvent B was ramped up from 5%-45% of the mobile phase over a period of 10 minutes. Peptides were detected at an absorbance of 214 nm and 280 nm.
# as §1, §2
# FIG. 20 illustrates high performance liquid chromatograph (HPLC) traces of peptides after pepsin digestion. […]
Compound,Resistance to Trypsin (500 U/ml) (trypsin),Resistance to Pepsin (500 U/ml) (pepsin)
"CC[C@H](C)[C@H](NC(=O)CNC(=O)[C@@H](NC(=O)[C@H](CO)NC(=O)[C@@H](NC(=O)[C@H](CO)NC(=O)CN)[C@@H](C)CC)[C@@H](C)CC)C(=O)N[C@@H](CCCCN)C(=O)N[C@H]1CSSC[C@@H]2NC(=O)[C@H](Cc3ccc(O)cc3)NC(=O)CNC(=O)[C@H]([C@@H](C)O)NC(=O)[C@H](Cc3ccccc3)NC(=O)[C@H](Cc3ccc(O)cc3)NC(=O)[C@H](CCCCN)NC(=O)[C@H](CCCNC(=N)N)NC(=O)[C@H]([C@@H](C)CC)NC(=O)[C@H](CCCNC(=N)N)NC(=O)[C@@H]3CSSC[C@@H](C(=O)N[C@@H](CO)C(=O)NCC(=O)O)NC(=O)[C@H](Cc4c[nH]cn4)NC(=O)[C@H](CSSC[C@H](NC(=O)[C@H](CC(C)C)NC(=O)[C@H](CC(=O)O)NC(=O)[C@H]([C@@H](C)CC)NC(=O)[C@H](CO)NC(=O)[C@@H]4CCCN4C(=O)[C@H](CO)NC1=O)C(=O)N[C@@H](CCC(=O)O)C(=O)NCC(=O)N[C@@H](CCC(N)=O)C(=O)N3)NC(=O)[C@H]([C@@H](C)O)NC(=O)[C@H](CC(=O)O)NC(=O)CNC(=O)[C@H](CO)NC2=O [compound 3] (H-GSISIGIKCSPSIDLCEGQCRIRKYFTGYCSGDTCHCSG-OH; disulfide 9-30, 16-35, 20-37)",Low (A peptide classified as low indicates that the majority (over 75%) of the HPLC peak of the treated peptide disappeared as compared to the HPLC peak of the untreated peptide),Moderate (A peptide classified as medium indicates that about half (between 25% and 75%) of the HPLC peak of the treated peptide disappeared as compared to the HPLC peak of the untreated peptide)
"CC[C@H](C)[C@@H]1NC(=O)[C@@H]2CSSC[C@H](NC(=O)[C@H](C)NC(=O)CNC(=O)[C@H](CCC(=O)O)NC(=O)[C@@H](NC(=O)[C@H](CCCCN)NC(=O)[C@H](Cc3ccccc3)NC(=O)[C@H](CC(N)=O)NC(=O)[C@H](CO)NC(=O)CN)C(C)C)C(=O)N[C@@H](CO)C(=O)N[C@@H](CCCCN)C(=O)N3CCC[C@H]3C(=O)N[C@H]3CSSC[C@H](NC(=O)[C@H](CCCNC(=N)N)NC(=O)CNC(=O)[C@H](CC(N)=O)NC1=O)C(=O)N[C@@H](Cc1c[nH]cn1)C(=O)N[C@H](C(=O)N[C@@H](Cc1ccc(O)cc1)C(=O)N[C@@H](Cc1ccc(O)cc1)C(=O)O)CSSC[C@H](NC(=O)[C@H](Cc1ccc(O)cc1)NC(=O)[C@H](CCCCN)NC(=O)[C@H](CCCNC(=N)N)NC3=O)C(=O)N[C@@H]([C@@H](C)CC)C(=O)N[C@@H](CC(=O)O)C(=O)N[C@@H](CCCCN)C(=O)NCC(=O)N[C@@H](C)C(=O)N[C@@H](CCCNC(=N)N)C(=O)N[C@@H](CC(N)=O)C(=O)NCC(=O)N[C@@H](CCCCN)C(=O)N2 [compound 5] (H-GSNFKVEGACSKPCRKYCIDKGARNGKCINGRCHCYY-OH; disulfide 10-28, 14-33, 18-35)",Moderate (A peptide classified as medium indicates that about half (between 25% and 75%) of the HPLC peak of the treated peptide disappeared as compared to the HPLC peak of the untreated peptide),Moderate (A peptide classified as medium indicates that about half (between 25% and 75%) of the HPLC peak of the treated peptide disappeared as compared to the HPLC peak of the untreated peptide)
"CC[C@H](C)[C@@H]1NC(=O)[C@H](CCCNC(=N)N)NC(=O)[C@H]([C@@H](C)CC)NC(=O)[C@@H]2CSSC[C@@H](C(=O)N[C@@H](Cc3ccc(O)cc3)C(=O)N3CCC[C@H]3C(=O)O)NC(=O)[C@H](Cc3ccc(O)cc3)NC(=O)[C@@H]3CSSC[C@H](NC(=O)[C@H](CCC(=O)O)NC(=O)[C@H](CO)NC(=O)[C@H](CO)NC(=O)[C@H](CC(N)=O)NC(=O)[C@H](CC(N)=O)NC(=O)[C@@H](NC(=O)[C@H](CCCNC(=N)N)NC(=O)[C@H](CC(N)=O)NC(=O)[C@H](CO)NC(=O)[C@H](CC(C)C)NC(=O)[C@@H](NC(=O)[C@H](CCCCN)NC(=O)[C@H](CCC(N)=O)NC(=O)[C@H](CO)NC(=O)CN)[C@@H](C)CC)CSSC[C@H](NC(=O)[C@H](CCCCN)NC(=O)[C@H](C)NC(=O)[C@H](C)NC(=O)[C@H](CCCNC(=N)N)NC(=O)[C@H]([C@@H](C)O)NC(=O)CNC(=O)[C@H](Cc4ccccc4)NC1=O)C(=O)N[C@@H]([C@@H](C)CC)C(=O)N[C@@H](CC(N)=O)C(=O)N[C@@H](CCCNC(=N)N)C(=O)N[C@@H](CCCCN)C(=O)N3)C(=O)N[C@@H]([C@@H](C)CC)C(=O)N1CCC[C@H]1C(=O)N[C@@H](Cc1c[nH]cn1)C(=O)N2 [compound 6] (H-GSQKILSNRCNNSSECIPHCIRIFGTRAAKCINRKCYCYP-OH; disulfide 10-31, 16-36, 20-38)",High (A peptide classified as high indicates that the majority (at least 75%) of the HPLC peak of the treated peptide is still present as compared to the HPLC peak of the untreated peptide),High (A peptide classified as high indicates that the majority (at least 75%) of the HPLC peak of the treated peptide is still present as compared to the HPLC peak of the untreated peptide)
"CC[C@H](C)[C@@H]1NC(=O)[C@@H]2CSSC[C@H](NC(=O)[C@@H](NC(=O)[C@H](C)NC(=O)[C@H](CO)NC(=O)CN)C(C)C)C(=O)N[C@@H](CC(N)=O)C(=O)N[C@@H](CC(C)C)C(=O)N[C@@H](CCCCN)C(=O)N[C@@H](CCCNC(=N)N)C(=O)N[C@H]3CSSC[C@H](NC(=O)[C@H](CCCCN)NC(=O)[C@H](CC(=O)O)NC(=O)CNC1=O)C(=O)N[C@@H](CCC(=O)O)C(=O)N[C@H](C(=O)N[C@H](C(=O)N[C@@H](CCCCN)C(=O)N[C@@H](Cc1c[nH]cn1)C(=O)NCC(=O)O)C(C)C)CSSC[C@H](NC(=O)[C@H](CO)NC(=O)[C@H](CC(C)C)NC(=O)[C@H](CCC(N)=O)NC3=O)C(=O)N[C@@H](CCCNC(=N)N)C(=O)N[C@@H](CO)C(=O)N[C@@H](CC(C)C)C(=O)NCC(=O)N[C@@H](CC(C)C)C(=O)N[C@@H](CC(C)C)C(=O)NCC(=O)N[C@@H](CCCCN)C(=O)N2 [compound 8] (H-GSAVCNLKRCQLSCRSLGLLGKCIGDKCECVKHG-OH; disulfide 5-23, 10-28, 14-30)",Low (A peptide classified as low indicates that the majority (over 75%) of the HPLC peak of the treated peptide disappeared as compared to the HPLC peak of the untreated peptide),High (A peptide classified as high indicates that the majority (at least 75%) of the HPLC peak of the treated peptide is still present as compared to the HPLC peak of the untreated peptide)
